Laboratory results reported in patent publication US20240390490A1, “PHARMACEUTICAL COMPOSITIONS FOR THE TREATMENT OF CANCERS” (Rutgers, The State University of New Jersey, priority 2021, published 2024).

Tests used:
[1] = system: MDA-MB-231-cell-derived xenografts; experiment: Survival study of nude rats inoculated with MDA-MB-231 cells; type: in vivo, rat; settings: Kaplan-Meier; control animals about 28 days
Experimental: For the following study and survival study, MDA-MB 231 cells (ATCC) were grown until about 90% confluence just 1 day before injection. On the day of injection, after checking cell viability with trypan blue, MDA-MB 231 cells were diluted in PBS at a final concentration of 1×10^7 cells/rat in 200-μl of PBS-50% Matrigel (BD Biosciences, San Jose, CA) mixture and injected subcutaneously (SC) into the right flank of the rats. […] Tumor shrinkage/growth was measured in animals daily and animal weights were measured every other day. […] Three dimensions of tumor were measured using electronic calipers, and tumor volumes were calculated by the formula L×W^2/2. The mean±SEM of tumor volume was calculated weekly for each experimental group, and the data are expressed as mean absolute tumor volume. After the animals were sacrificed, the subcutaneous tumors were excised intact from the rats to determine the tumor weight in grams and photographed to visualize differences in tumor morphology and compare size. A portion of the excised tumors was snap-frozen by immersion in liquid nitrogen and stored at −80° C. until further use.
The animals were treated with the same drug treatment regimens and euthanized as described previously. […] At the endpoint (prior to the onset of death), the animals were euthanized, and the survival curves were plotted in a Kaplan-Meier survival curve.

[2] = system: NK cells and macrophages in tumor tissues; experiment: Immunocytochemistry and flow cytometry of tumor-infiltrating immune cells; type: in vivo, rat
Experimental: Thin paraffin sections (5 μm) of tumors were stained using the ABC Elite Vectastain Kit (Vector Labs) according to the manufacturer's instructions using various primary antibodies. Details of all primary antibodies used are described above. In addition, cell proliferation-associated antigen (Ki-67; 1:200) were purchased from Abcam. After the primary antibody incubation and PBS wash, sections were incubated with peroxidase-coupled anti-rabbit Ig ImmPRESS reagent (Vector Laboratories, Inc.). Antigen localization was achieved by using the 3,3′-diaminobenzidine-peroxidase reaction, and sections were dehydrated, and cover slipped. To evaluate the immunohistochemical staining, sections were photographed using a Nikon-TE 2000 inverted microscope. Intensity of staining was categorized as negative and strongly positive (27). Brown-stained spots are immuno positive cells. Data are means±SEM obtained from 3 serial sections of 5 to 6 animals in each group.
Tumor-infiltrating immune cells were collected from MDA-MB-231 cell xenograft tumors to examine and compare the immune cell population among control and drug-treated animals. Briefly, single-cell suspensions of tumor tissue were achieved by mincing the tissue with a scalpel blade using a crisscross method, ground with 1-ml of ACK lysing buffer to remove red blood cells. The cell suspensions were filtered through a 70-micron sieve and then washed with PBS. Cells from the tumor were collected and dispersed with 100 μl of PBS and stained by the addition of fluorescence-conjugated antibodies. For flow cytometry experiments, single-cell suspension derived from tumors, PBMC, and splenocytes were used to characterize the immune cell population. Fluorophore-conjugated antibodies were used to detect surface markers of specific cell types and markers are as follows: for NK cells (CD161a (10/78)), tissue macrophage (RT1B (OX-6)), dendritic cells (CD103 (OX-62)), peripheral monocytes (CD11b (ED8)), B cells (CD45RA (OX-33)), and DAPI (Sigma) was used to exclude dead cells.
Immune cells from the tumor, PBMC, and splenocyte samples were examined by following the gating strategy as described below. First, side scatter area (SSC-A) versus forward scatter area (FSC-A) were used to exclude cellular debris, then forward scatter height (FSC-H) versus FSC-A were used to select single cells. Single cells were sub-gated using DAPI viability dye and a further live cell population was used to select markers. Expression of a particular cell surface marker in a specific population of cells was identified and represented as single parameter histograms. Unstained cells and compensation beads (BD Biosciences, CA) were used to set voltages and create single stain negative and positive controls. Additional negative controls (isotype control and fluorescence minus one (FMO)) were also used to determine any non-specific binding in the present study. The data collected from each sample were exported and analyzed using FlowJo™ version 10.7.

[3] = system: MDA-MB-231, MDA-MB-468, and T47D cells; experiment: Transwell cell migration assay; type: cell-based, human; settings: 100 μM, 12 hours
Experimental: Cell migration assay was performed following the procedure described previously (26). In brief, the upper insert chambers (8-μm pore polycarbonate membrane) were seeded with cells at a density of 5×10^4 cells (cell numbers established by preliminary experiments) per well in the appropriate serum-free medium. A 10% FBS-containing media was then added to the lower chamber to serve as a chemoattractant. […] The photographs were used to count the number of migrated cells in Adobe Photoshop.

[4] = system: MDA-MB-231, MDA-MB-468, and T47D cells; experiment: Matrigel cell invasion assay; type: cell-based, human; settings: 100 μM, 48 hours, Matrigel coated membrane
Experimental: The invasive and metastatic potential of cell lines was tested by transmigration through an extracellular matrix (ECM) by a previously described method (26). In brief, the upper chamber of the matrix in 24-well Matrigel invasion chamber plates (BD BioCoat™ Matrigel™ Chamber, BD Biosciences, San Jose, CA) was loaded with 5×10^4 cells in 500 μl of the appropriate medium (cell numbers established by preliminary experiments). After 24 hours, medium containing 1% FBS was used on both the lower and upper surfaces. One day later, the medium of the upper chamber was replaced with 500 μl medium containing 1% FBS without any drug treatment. The medium was replaced with medium containing 10% FBS and 25 ng/ml EGF in the lower chamber. The effect of beta-adrenergic and opioidergic drugs was tested by adding a 100 μM concentration of these drugs alone or in combination or vehicle alone in both lower and upper chambers. After 48 hours of incubation, the noninvasive cells that remained within the inserts were removed with a cotton swab. Cells that traversed through the Matrigel and the polycarbonate filter (8-μm pore size) attached to the lower surface were stained with 0.5% crystal violet for calculating the invasion index. Cells were visualized and photographed as described in the migration assay. The photographs were used to count invasive cells in Adobe Photoshop.

Compound | mean life span (survival) [1] [days] | percentage of CD161+ NK cells in the tumor tissues [2] | percentage of CD163+ macrophages in the tumor tissues [2] | cell migration [3] | cell invasion [4]
CC1(C)SSC(C)(C)[C@@H](NC(=O)[C@@H](N)Cc2ccc(O)cc2)C(=O)NCC(=O)N[C@@H](Cc2ccccc2)C(=O)N[C@H]1C(=O)O [DPDPE, (D-Pen^2, D-Pen^5)-enkephalin] | 40 | increased | decreased | significant but moderate inhibitory effects | decreased cell invasion
O=C1CC[C@@]2(O)[C@H]3Cc4ccc(O)c5c4[C@@]2(CCN3CC2CC2)[C@H]1O5 [NTX, 17-(cyclopropylmethyl)-4,5α-epoxy-3,14-dihydroxymorphinan-6-one] | 45 | increased | decreased | significant but moderate inhibitory effects | decreased cell invasion
CC(C)NCC(O)COc1cccc2ccccc12 (stereo not drawn) [PRO, propranolol] | 45 | increased | decreased | significant but moderate inhibitory effects | decreased cell invasion
